Results published in ChEMBL document CHEMBL4622971, “The Optimization of a Novel, Weak Bromo and Extra Terminal Domain (BET) Bromodomain Fragment Ligand to a Potent and Selective Second Bromodomain (BD2) Inhibitor” (J Med Chem, 2020).
Blank lines part the entries; values can stand above or below the molecule they belong to.

Tests used:
[1] = Distribution coefficient, logD of the compound at pH 7.4 by chromatography; type: physicochemical
[2] = Intrinsic clearance in human hepatocytes at 0.5 uM incubated for 120 mins by LC-MS/MS analysis; type: ADME, cell-based, Hepatocyte; conditions: 2 h
[3] = Intrinsic clearance in rat hepatocytes at 0.5 uM incubated for 60 mins by LC-MS/MS analysis; type: ADME, cell-based, Hepatocyte; conditions: 1 h
[4] = Half life in male Wistar Han rat at 1 mg/kg, iv measured up to 7 hrs by LC-MS/MS analysis; type: ADME, organism-based; conditions: in vivo
[5] = Volume of distribution at steady state in male Wistar Han rat at 1 mg/kg, iv measured up to 7 hrs by LC-MS/MS analysis; type: ADME, organism-based; conditions: in vivo, read-out: Vdss
[6] = Dose normalized AUC in male Wistar Han rat at 3 mg/kg, po measured up to 7 hrs by LC-MS/MS analysis; type: ADME, organism-based; conditions: in vivo
[7] = Intrinsic clearance in dog hepatocytes at 0.5 uM incubated for 120 mins by LC-MS/MS analysis; type: ADME, cell-based, Canis lupus familiaris, Hepatocyte; conditions: 2 h
[8] = Blood clearance in male Wistar Han rat at 1 mg/kg, iv measured up to 7 hrs by LC-MS/MS analysis; type: ADME, organism-based; conditions: whole blood
[9] = Intrinsic clearance in Wistar Han rat liver microsomes at 0.5 uM pre-incubated up to 45 mins before NADPH addition by LC-MS/MS analysis; type: ADME, Microsome
[10] = Intrinsic clearance in human liver microsomes at 0.5 uM pre-incubated up to 45 mins before NADPH addition by LC-MS/MS analysis; type: ADME, Microsome
[11] = Blood clearance in male Wistar Han rat at […], iv measured up to 7 hrs by LC-MS/MS analysis; conditions: whole blood
[12] = Half life in male Wistar Han rat at […], iv measured up to 7 hrs by LC-MS/MS analysis; conditions: in vivo
[13] = Volume of distribution at steady state in male Wistar Han rat at […], iv measured up to 7 hrs by LC-MS/MS analysis; conditions: in vivo, read-out: Vdss
[14] = Oral bioavailability in male Wistar Han rat at 3 mg/kg measured up to 7 hrs by LC-MS/MS analysis; type: ADME, organism-based; conditions: in vivo
[15] = Half life in beagle dog at 10.5 mg/kg, iv measured up to 7 hrs by LC-MS/MS analysis; type: ADME, organism-based, Canis lupus familiaris; conditions: in vivo
[16] = Blood clearance in beagle dog at 10.5 mg/kg, iv measured up to 7 hrs by LC-MS/MS analysis; type: ADME, organism-based, Canis lupus familiaris; conditions: whole blood
[17] = Oral bioavailability in beagle dog at 10.5 mg/kg, iv measured up to 7 hrs by LC-MS/MS analysis; type: ADME, organism-based, Canis lupus familiaris; conditions: in vivo
[18] = Volume of distribution at steady state in beagle dog at 10.5 mg/kg, iv measured up to 7 hrs by LC-MS/MS analysis; type: ADME, organism-based, Canis lupus familiaris; conditions: in vivo, read-out: Vdss

SMILES: CNC(=O)c1cc(C(=O)NC2CC2)cn(Cc2cccc3occc23)c1=O
- chromatographic logD [1]: 3.4

SMILES: CNC(=O)c1cc(C(=O)NC2CC2)cn(CC2CCCOC2)c1=O (racemic)
- chromatographic logD [1]: 2

SMILES: CNC(=O)c1cc(C(=O)NC2CC2)cn(Cc2ccccc2F)c1=O
- chromatographic logD [1]: 3

SMILES: CNC(=O)c1cc(C(=O)NC2CC2)cn(Cc2cccc(C)c2)c1=O
- chromatographic logD [1]: 3.6

SMILES: CNC(=O)c1cc(C(=O)NC2CCC2)cn(Cc2ccccn2)c1=O
- chromatographic logD [1]: 2.2

SMILES: CNC(=O)c1cc(C(=O)NC2CC2)cn(Cc2cccc3[nH]ccc23)c1=O
- CLH [2]: < 0.45 mL/min/g
- CLH [3]: 1.66 to 1.7 mL/min/g
- chromatographic logD [1]: 2.9
- half-life [4]: 48 min
- Vd [5]: 1.3 L/kg
- AUC/dose [6]: 23.6 kg·min/L
- CLH [7]: < 1.26 mL/min/g
- clearance [8]: 23 mL/min/kg

SMILES: CNC(=O)c1cc(C(=O)NC2CC2)cn(Cc2cccc3cc[nH]c23)c1=O
- chromatographic logD [1]: 3.7

SMILES: CNC(=O)c1cc(C(=O)NC2CCC2)cn(Cc2cccc(NC)c2)c1=O
- chromatographic logD [1]: 3.6

SMILES: CNC(=O)c1cc(C(=O)NC2CC2)c(C)n(Cc2ccccc2)c1=O
- chromatographic logD [1]: 2.9

SMILES: CNC(=O)c1cc(C(=O)NC2CC2)cn(Cc2cccc(F)c2)c1=O
- chromatographic logD [1]: 3.2

SMILES: CCNC(=O)c1cccn(Cc2ccccc2)c1=O
- chromatographic logD [1]: 3.7

SMILES: CNC(=O)c1cc(C(=O)NCCC(C)C)cn(Cc2ccccc2)c1=O
- chromatographic logD [1]: 4.8

SMILES: CNC(=O)c1cc(C(=O)NC2CC2)cn(Cc2cccc(OC)c2)c1=O
- chromatographic logD [1]: 3

SMILES: CNC(=O)c1cc(C(=O)NC2CC2)cn(Cc2nccc3[nH]ccc23)c1=O
- chromatographic logD [1]: 1.7

SMILES: CNC(=O)c1cc(C(=O)NC2CCC2)cn(Cc2cccnc2)c1=O
- chromatographic logD [1]: 1.8

SMILES: CNC(=O)c1cc(C(=O)NC2CC2)cn(Cc2ccc3nc[nH]c3c2)c1=O
- chromatographic logD [1]: 1.2

SMILES: CNC(=O)c1cc(C(=O)NC2CCOCC2)cn(Cc2ccccc2)c1=O
- chromatographic logD [1]: 2.8

SMILES: CNC(=O)c1cc(C(=O)NCCO)cn(Cc2ccccc2)c1=O
- chromatographic logD [1]: 1.9

SMILES: CNC(=O)c1cc(C(N)=O)cn(Cc2ccccc2)c1=O
- chromatographic logD [1]: 2

SMILES: CNC(=O)c1cc(C(=O)NC2CC2)cn(Cc2cccc3cn[nH]c23)c1=O
- chromatographic logD [1]: 2.2

SMILES: CNC(=O)c1cc(C(=O)NC2CC2)cn(Cc2ccc(F)cc2)c1=O
- chromatographic logD [1]: 3.2

SMILES: CNC(=O)c1cc(C(=O)NCCC2CCCNC2)cn(Cc2ccccc2)c1=O (stereo not drawn)
- chromatographic logD [1]: 1.6

SMILES: CNC(=O)c1cc(C(=O)NC2CC2)cn(Cc2ccc(C)cc2)c1=O
- chromatographic logD [1]: 3.5

SMILES: CNC(=O)c1cc(C(=O)NC2CC2)cn(Cc2ccc(OC)cc2)c1=O
- chromatographic logD [1]: 3

SMILES: CNC(=O)c1cc(C(=O)NCCOC)cn(Cc2ccccc2)c1=O
- chromatographic logD [1]: 2.7

- CLH [9]: 0.76 mL/min/g
- chromatographic logD [1]: 2.6
- CLH [10]: 0.53 mL/min/g
SMILES: CNC(=O)c1ccc(=O)n(Cc2cc(Br)ccc2F)c1

- clearance at 7 h [11]: 72 mL/min/kg
- half-life at 7 h [12]: 24 min
- CLH [2]: < 0.87 mL/min/g
- CLH [3]: 1.5 mL/min/g
- chromatographic logD [1]: 3.5
- Vd at 7 h [13]: 1.6 L/kg
SMILES: CNC(=O)c1cc(C(=O)NC2CC2)cn([C@H](C)c2ccccc2)c1=O

SMILES: CNC(=O)c1cc(C(=O)NC2CC2)cn(Cc2cccc([C@@H](C)O)c2)c1=O
- CLH [2]: < 0.45 mL/min/g
- CLH [3]: 3 mL/min/g
- chromatographic logD [1]: 2.2
- half-life [4]: 24 min
- Vd [5]: 1.7 L/kg
- CLH [7]: < 1.26 mL/min/g
- clearance [8]: 74 mL/min/kg

SMILES: CNC(=O)c1cc(C(=O)NC2CCC2)cn(Cc2ccncc2)c1=O
- chromatographic logD [1]: 1.7

SMILES: CNC(=O)c1cccn(Cc2ccccc2)c1=O
- chromatographic logD [1]: 3

SMILES: CNC(=O)c1cc(C(=O)NC2CC2)cn(Cc2cccc3[nH]c(C)nc23)c1=O
- chromatographic logD [1]: 1.5

SMILES: CNC(=O)c1cc(C(=O)NC2CCC2)cn(Cc2ccccc2)c1=O
- chromatographic logD [1]: 3.8

SMILES: CNC(=O)c1cc(C(=O)NC(C)C)cn(Cc2ccccc2)c1=O
- chromatographic logD [1]: 3.6

SMILES: CNC(=O)c1cc(C(=O)NCCCC2CNCCO2)cn(Cc2ccccc2)c1=O (racemic)
- chromatographic logD [1]: 1.4

SMILES: CNC(=O)c1cc(C(=O)NC2CC2)cn(Cc2cccc3[nH]ncc23)c1=O
- CLH [2]: < 0.45 mL/min/g
- CLH [3]: < 0.8 mL/min/g
- chromatographic logD [1]: 1.5
- bioavailability [14]: 14%
- half-life [4]: 24 min
- Vd [5]: 1.2 L/kg
- clearance [8]: 42 mL/min/kg

SMILES: CNC(=O)c1cc(C(=O)NC2CC2)cn(Cc2ccccc2)c1=O [GSK620]
- CLH [2]: < 0.45 mL/min/g
- half-life [15]: 342 min
- CLH [3]: 0.95 mL/min/g
- chromatographic logD [1]: 3.1
- clearance [16]: 2 mL/min/kg
- bioavailability [14]: 67%
- half-life [4]: 66 min
- Vd [5]: 0.8 L/kg
- bioavailability [17]: 57%
- Vd [18]: 1 L/kg
- CLH [7]: < 1.26 mL/min/g
- clearance [8]: 12 mL/min/kg

- chromatographic logD [1]: 1.6
SMILES: CNC(=O)c1ccc(=O)n(Cc2ccccc2)c1

SMILES: CCNC(=O)c1cc(C(=O)NC)c(=O)n(Cc2ccccc2)c1
- CLH [2]: < 0.87 mL/min/g
- CLH [3]: < 0.8 mL/min/g
- chromatographic logD [1]: 3
- bioavailability [14]: 104%
- half-life [4]: 36 min
- Vd [5]: 0.8 L/kg
- CLH [7]: < 1.26 mL/min/g
- clearance [8]: 12 mL/min/kg

SMILES: CNC(=O)c1cc(C(=O)NC2CC2)cn(Cc2cccc(C#N)c2)c1=O
- chromatographic logD [1]: 2.6

SMILES: CNC(=O)c1cc(C(=O)NC2CC2)cn(CC2CCCCC2)c1=O
- chromatographic logD [1]: 4

SMILES: CNC(=O)c1cc(C(=O)NC2CC2)cn(Cc2cccc(CCN3CCOCC3)c2)c1=O
- chromatographic logD [1]: 2.3

SMILES: CNC(=O)c1cc(C(=O)NCC(C)C)cn(Cc2ccccc2)c1=O
- chromatographic logD [1]: 4.3

SMILES: CNC(=O)c1cc(C(=O)NC)c(=O)n(Cc2ccccc2)c1
- chromatographic logD [1]: 2.4

SMILES: CNC(=O)c1cc(C(=O)NC2CC2)cn(Cc2cccc3c2CCN3)c1=O
- CLH [2]: < 0.45 mL/min/g
- CLH [3]: < 0.8 mL/min/g
- chromatographic logD [1]: 2.1
- bioavailability [14]: 53%
- half-life [4]: 36 min
- Vd [5]: 0.9 L/kg
- CLH [7]: < 1.26 mL/min/g
- clearance [8]: 16 mL/min/kg

SMILES: CNC(=O)c1cc(C(=O)NC2CC2)cn(CC2CCOCC2)c1=O
- chromatographic logD [1]: 1.5

SMILES: CNC(=O)c1cc(C(=O)NCCC2CCOCC2)cn(Cc2ccccc2)c1=O
- chromatographic logD [1]: 3.6

SMILES: CNC(=O)c1cc(C(=O)NC2CC2)cn(CC2CCCCO2)c1=O (racemic)
- chromatographic logD [1]: 2.6
